Test results taken from publication PMC2631241 (Journal of combinatorial chemistry, 2008).

Molecular target: human serum albumin (HSA) (Homo sapiens, UniProt P02768)
Experiment: 1D 1H NMR line-broadening titration of ligand with HSA

Chain of human serum albumin (HSA) (P02768 25-609): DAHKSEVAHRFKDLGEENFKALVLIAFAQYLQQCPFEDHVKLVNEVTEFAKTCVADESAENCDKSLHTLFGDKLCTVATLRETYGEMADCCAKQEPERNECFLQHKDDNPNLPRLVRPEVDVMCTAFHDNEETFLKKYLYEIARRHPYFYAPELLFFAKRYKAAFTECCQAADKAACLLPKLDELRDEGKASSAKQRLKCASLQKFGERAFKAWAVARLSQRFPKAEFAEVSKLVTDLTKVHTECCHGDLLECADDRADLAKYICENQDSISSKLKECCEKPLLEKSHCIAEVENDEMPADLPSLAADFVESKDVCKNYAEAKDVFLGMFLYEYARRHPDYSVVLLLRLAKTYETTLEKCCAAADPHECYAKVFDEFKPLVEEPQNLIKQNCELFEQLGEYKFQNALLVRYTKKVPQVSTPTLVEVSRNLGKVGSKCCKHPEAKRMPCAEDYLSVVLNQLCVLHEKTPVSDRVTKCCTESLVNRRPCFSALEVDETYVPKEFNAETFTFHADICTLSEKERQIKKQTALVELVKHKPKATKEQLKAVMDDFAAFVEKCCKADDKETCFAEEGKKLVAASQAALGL

Kd [µM]	SMILES
1.7 ± 3.4	CCOC(=O)C(C)(C)Oc1ccc(Cl)cc1 [Clofibrate, clofibrate]
36.8 ± 6.5	O=S1(=O)OC(c2ccc(O)cc2)(c2ccc(O)cc2)c2ccccc21 [Phenol Red, phenol red]
132 ± 12.5	O=C1NC(=O)C(c2ccccc2)(c2ccccc2)N1 [Phenytoin, phenytoin]
